Measurements: patent US20220016101A1 (ACADIA Pharmaceuticals Inc., priority 2018, published 2022)
Values joined by “and” are separate entries in the source; they are usually repeats but may differ in a detail not shown here. Identical values can stand only once.

What was measured:
[1] = tested on: adults with Parkinson's disease and depression; test: Adverse events, open-label study in Parkinson's disease and depression; assay type: in vivo, human; conditions: of the first 31 patients; most common falls, UTI, diarrhea, nausea
Description: (§1) Subjects can receive treatment as either monotherapy or adjunctively if inadequately controlled with SSRI/SNRI monotherapy. A primary endpoint of the study is change from baseline to Week 8 in the Hamilton Depression Scale 17-item (HAMD-17) total score. Secondary endpoints include Clinical Global Impression (CGI) scales (improvement and severity), Scale of Outcomes in PD-Sleep (SCOPA), and quality of life as measured by EuroQol-5 dimensions-5 levels (EQ-5D-5L).
Adverse events were classified into standard terminology using the Medical Dictionary for Regulatory Activities (MedDRA). Treatment-emergent adverse events (TEAEs), TEAEs leading to discontinuation, TEAEs related to study drug, TEAEs by maximum severity, serious adverse events (SAEs), and SAEs related to study drug were summarized.

[2] = tested on: patients with MDD and an inadequate response to an SSRI or SNRI; test: Safety and tolerability (adverse events), Study ACP-103-042
[3] = tested on: patients with MDD and an inadequate response to an SSRI or SNRI; test: HAMD-17 melancholic symptom subscale score (HAMD-6), MDD study; assay type: in vivo, human; conditions: for HAMD-17 Melancholic Symptom Subscale Score Change from Baseline to Week 5 Mean (SE) / HAMD-17 Melancholic Symptom Subscale Score Change from Baseline to Week 5 Median: 34 mg QD + SSRI/SNRI
Description: “Hamilton Depression Scale 6-item (HAMD-6)” is a subscale derived from the 17-item Hamilton Rating Scale for Depression (HAMD-17). HAMD-6 includes the following items: depressed mood, guilt feelings, work and interests, psychomotor retardation, psychic anxiety, and general somatic symptoms (Bech et al. Acta Psychiatr Scand. 1975, 51(3):161-70).
All patients continued on their SSRI or SNRI at a stable dose for the duration of the study.
A higher HAMD-17 melancholic symptom subscale score indicates more severe depression […]. The abbreviations are: CI=confidence interval; LSM=least squares mean; MMRM=mixed-effects model for repeated measures; OC=observed cases; SD=standard deviation; SE=standard error. In Stage 1, Baseline=Study Week 0, Weeks 1-5=Study Weeks 1-5; and in Stage 2, Baseline=Study Week 5, Weeks 1-5=Study Weeks 6-10. LSM is from the stage-specific MMRM analysis with the change from baseline as the outcome; treatment group, visit, treatment-by-visit interaction, baseline melancholic symptom subscale score, and baseline melancholic symptom subscale score-by-visit interaction as the factors. An unstructured covariance matrix is used to model the within-subject errors. The denominator degrees of freedom are estimated using the Kenward-Roger approximation. 2-Sided p-value is for treatment difference from the stage-specific MMRM analysis.

[4] = tested on: adults with Parkinson's disease and depression; test: HAMD-17 total score, open-label study in Parkinson's disease and depression; assay type: in vivo, human; conditions: Week 8; interim, first 31 patients
Description: as §1
Subjects were assessed for eligibility and prohibited medications were discontinued. After all screening assessments were completed, eligible subjects returned to the clinic for Baseline evaluation. After Baseline assessments were completed, subjects were enrolled and received the first dose of pimavanserin. Study medication were provided to the subjects to take home with instructions to take the medication approximately the same time each day, and return all used containers and unused study drug as scheduled.
At approximately 2, 4, and 6 weeks after start of dosing of study drug subjects returned to the clinic for assessments. Safety measures, HAMD-17, C-SSRS (Columbia Suicide Severity Rating Scale), CGI-S(Clinical Global Impression-Severity), and CGI-I (Clinical Global Impression-Improvement) were evaluated at all visits. […]
The HAMD-17 total score was analyzed using mixed model for repeated measures (MMRM). […]

[5] = molecular target: serotonin transporter (Homo sapiens, UniProt P31645); test: Receptor profile: affinity (Ki) at SERT; assay type: binding; conditions: data on file
Chain of serotonin transporter (P31645 whole entry): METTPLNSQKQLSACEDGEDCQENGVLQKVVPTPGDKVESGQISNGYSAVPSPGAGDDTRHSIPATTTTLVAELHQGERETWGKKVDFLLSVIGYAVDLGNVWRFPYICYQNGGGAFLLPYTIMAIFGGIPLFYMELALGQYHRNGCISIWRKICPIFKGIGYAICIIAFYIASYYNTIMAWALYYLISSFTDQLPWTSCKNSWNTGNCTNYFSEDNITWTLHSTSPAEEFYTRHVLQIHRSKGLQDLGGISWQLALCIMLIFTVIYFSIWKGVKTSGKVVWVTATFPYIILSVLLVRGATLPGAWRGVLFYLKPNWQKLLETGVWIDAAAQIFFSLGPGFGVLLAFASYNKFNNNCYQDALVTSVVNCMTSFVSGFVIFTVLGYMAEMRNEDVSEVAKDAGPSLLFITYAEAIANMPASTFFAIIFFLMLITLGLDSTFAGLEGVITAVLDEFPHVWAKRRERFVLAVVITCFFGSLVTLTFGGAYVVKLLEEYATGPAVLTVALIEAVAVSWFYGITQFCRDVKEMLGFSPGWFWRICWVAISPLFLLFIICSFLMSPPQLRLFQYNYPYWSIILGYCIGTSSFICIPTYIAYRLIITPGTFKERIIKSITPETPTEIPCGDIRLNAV

CC(C)COc1ccc(CNC(=O)N(Cc2ccc(F)cc2)C2CCN(C)CC2)cc1 [pimavanserin, N-(4-Fluorophenylmethyl)-N-(1-methylpiperidin-4-yl)-N′-(4-(2-methylpropyloxy)phenylmethyl)carbamide]
patients reporting adverse events [1]: 13
Discontinuations due to adverse events ([2]; 34 mg QD + SSRI/SNRI): 1.2% and 1.9%
rates of daytime sleepiness, weight gain, metabolic laboratory tests, and sexual dysfunction ([2]; 34 mg QD + SSRI/SNRI): low rates
tolerability ([2]; 34 mg QD + SSRI/SNRI): generally well-tolerated
tolerability ([2]; 34 mg QD + SSRI/SNRI, listed as Pimavanserin): well tolerated
subjects reporting serious adverse events ([2]; deemed not related to study drug): One subject
HAMD-17 Melancholic Symptom Subscale Score Effect Size (Cohen's d) ([3]; Stage 1): 0.558
HAMD-17 Melancholic Symptom Subscale Score Change from Baseline to Week 5 Mean (SE) ([3]; Stage 1): −6.8 (0.62)
HAMD-17 Melancholic Symptom Subscale Score Change from Baseline to Week 5 Median ([3]; Stage 1): −8.0
HAMD-17 Melancholic Symptom Subscale Score Effect Size (Cohen's d) ([3]; Stage 2): −0.304
HAMD-17 Melancholic Symptom Subscale Score Change from Baseline to Week 5 Mean (SE) ([3]; Stage 2): −1.0 (0.46)
HAMD-17 Melancholic Symptom Subscale Score Change from Baseline to Week 5 Median ([3]; Stage 2): −1.0
patients reaching remission (HAMD-17≤7) [4]: 35.5%
patients with ≥50% improvement in the HAMD-17 [4]: 45.2%
Ki [5]: > 1000 nM
